# Experimental data reported in patent publication US12209081B2 (Katholieke Universiteit Leuven, priority 2020, dated 2025).
# Biological target: mouse TRPM3α2 (mTRPM3) ion channel (Mus musculus (Mouse), UniProt J9SQF3)
# Assay: TRPM3 ion channel driven Ca2+ uptake, Fluo-4 AM assay, mTRPM3alpha2 overexpressing flip-in HEK293 cells stimulated with pregnenolone sulfate
# Format: cell-based
# Settings: PS 50 μM, cpds 300-399
# How it was run: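 Read-out is Ca2+ influx via Fluo-4 AM fluorescence at 485/535 nm, taken right after seeding ~2000 cells/well onto compound with 50 μM PS. Inhibition computed from RFU between vehicle-stimulated and positive-control-inhibitor wells; cells were mTRPM3α2-overexpressing flip-in HEK293.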
# Chain of mouse TRPM3α2 (mTRPM3) ion channel (J9SQF3 other isoform, or with tags, fused parts or gaps): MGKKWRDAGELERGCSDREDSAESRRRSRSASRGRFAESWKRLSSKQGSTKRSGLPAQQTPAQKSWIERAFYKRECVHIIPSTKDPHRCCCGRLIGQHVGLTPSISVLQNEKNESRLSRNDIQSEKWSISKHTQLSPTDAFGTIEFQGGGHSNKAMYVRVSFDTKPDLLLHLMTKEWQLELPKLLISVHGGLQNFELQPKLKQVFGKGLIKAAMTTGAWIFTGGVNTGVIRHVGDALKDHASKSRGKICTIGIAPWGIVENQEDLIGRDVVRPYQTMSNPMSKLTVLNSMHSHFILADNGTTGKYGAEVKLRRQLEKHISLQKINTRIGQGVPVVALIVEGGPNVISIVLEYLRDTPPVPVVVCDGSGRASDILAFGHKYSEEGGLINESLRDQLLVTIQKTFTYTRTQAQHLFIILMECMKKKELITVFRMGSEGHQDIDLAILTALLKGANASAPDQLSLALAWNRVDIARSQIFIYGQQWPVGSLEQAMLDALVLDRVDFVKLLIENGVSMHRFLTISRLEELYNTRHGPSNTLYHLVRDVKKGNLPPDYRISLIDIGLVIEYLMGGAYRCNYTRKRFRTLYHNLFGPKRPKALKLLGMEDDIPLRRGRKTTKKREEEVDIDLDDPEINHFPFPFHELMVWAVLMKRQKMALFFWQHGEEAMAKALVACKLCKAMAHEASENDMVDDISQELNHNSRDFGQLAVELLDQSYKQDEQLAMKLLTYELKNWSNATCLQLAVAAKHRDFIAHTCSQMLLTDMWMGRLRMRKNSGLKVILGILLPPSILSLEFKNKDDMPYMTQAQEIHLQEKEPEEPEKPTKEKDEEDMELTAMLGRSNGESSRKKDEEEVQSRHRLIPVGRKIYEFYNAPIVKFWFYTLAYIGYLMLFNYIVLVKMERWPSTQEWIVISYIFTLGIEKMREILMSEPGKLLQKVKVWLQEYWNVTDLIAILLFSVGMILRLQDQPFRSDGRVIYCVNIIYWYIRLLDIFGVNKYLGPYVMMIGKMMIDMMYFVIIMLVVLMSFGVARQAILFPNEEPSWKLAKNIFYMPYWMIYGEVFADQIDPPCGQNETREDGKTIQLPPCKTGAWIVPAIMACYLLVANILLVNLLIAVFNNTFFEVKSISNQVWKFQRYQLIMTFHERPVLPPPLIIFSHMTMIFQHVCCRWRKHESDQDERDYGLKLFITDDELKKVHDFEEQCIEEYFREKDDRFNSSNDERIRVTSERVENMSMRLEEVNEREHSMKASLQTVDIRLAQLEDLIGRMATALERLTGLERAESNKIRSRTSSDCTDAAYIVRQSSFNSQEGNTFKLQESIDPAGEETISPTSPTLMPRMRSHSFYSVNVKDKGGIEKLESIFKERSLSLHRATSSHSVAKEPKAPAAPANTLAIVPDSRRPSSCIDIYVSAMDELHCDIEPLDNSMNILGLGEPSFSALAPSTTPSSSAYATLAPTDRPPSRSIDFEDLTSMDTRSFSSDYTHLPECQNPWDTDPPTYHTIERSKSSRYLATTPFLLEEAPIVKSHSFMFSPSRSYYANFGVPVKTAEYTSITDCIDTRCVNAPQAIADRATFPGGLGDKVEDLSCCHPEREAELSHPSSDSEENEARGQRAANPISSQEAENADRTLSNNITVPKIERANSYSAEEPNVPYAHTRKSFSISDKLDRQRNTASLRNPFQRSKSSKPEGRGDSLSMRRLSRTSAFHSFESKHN
row,Structure (SMILES),IC50
1,"Cc1oc2ccc(OCc3cccnc3C(F)F)cc2c1C(=O)NC1(CO)CCOCC1 [compound 343, 5-((2-(difluoromethyl)pyridin-3-yl)methoxy)-N-(4-(hydroxymethyl)tetrahydro-2H-pyran-4-yl)-2-methylbenzofuran-3-carboxamide]",< 1 µM
2,"Cc1oc2ccc(OCc3cccnc3N(C)C)cc2c1C(=O)NC1(CO)CCOCC1 [compound 344, 5-((2-(dimethylamino)pyridin-3-yl)methoxy)-N-(4-(hydroxymethyl)tetrahydro-2H-pyran-4-yl)-2-methylbenzofuran-3-carboxamide]",< 1 µM
3,"Cc1oc2ccc(OCc3cccnc3N)cc2c1C(=O)NC1(CO)CCOCC1 [compound 346, 5-((2-aminopyridin-3-yl)methoxy)-N-(4-(hydroxymethyl)tetrahydro-2H-pyran-4-yl)-2-methylbenzofuran-3-carboxamide]",< 1 µM
4,"Cc1oc2ccc(OCc3ncccc3F)cc2c1C(=O)NC1(CO)CCOCC1 [compound 352, 5-((3-fluoropyridin-2-yl)methoxy)-N-(4-(hydroxymethyl)tetrahydro-2H-pyran-4-yl)-2-methylbenzofuran-3-carboxamide]",< 1 µM
5,"Cc1oc2ccc(OCc3c(F)cnn3C)cc2c1C(=O)NC1(CO)CCOCC1 [compound 357, 5-((4-fluoro-1-methyl-1H-pyrazol-5-yl)methoxy)-N-(4-(hydroxymethyl)tetrahydro-2H-pyran-4-yl)-2-methylbenzofuran-3-carboxamide]",< 1 µM
6,"Cc1oc2ccc(OCc3ccc(OCCO)cn3)cc2c1C(=O)NC1(CO)CCOCC1 [compound 358, 5-((5-(2-hydroxyethoxy)pyridin-2-yl)methoxy)-N-(4-(hydroxymethyl)tetrahydro-2H-pyran-4-yl) -2-methylbenzofuran-3-carboxamide]",> 20 µM
7,"Cc1oc2ccc(OCc3ccc(F)cn3)cc2c1C(=O)NC1(CO)CCOCC1 [compound 359, 5-((5-fluoropyridin-2-yl)methoxy)-N-(4-(hydroxymethyl)tetrahydro-2H-pyran-4-yl)-2-methylbenzofuran-3-carboxamide]",< 1 µM
8,"Cc1ncsc1COc1cc2c(C(=O)NC3(CO)CC3)c(C)oc2cc1F [compound 361, 6-fluoro-N-(1-(hydroxymethyl)cyclopropyl)-2-methyl-5-((4-methylthiazol-5-yl)methoxy)benzofuran-3-carboxamide]",< 1 µM
9,"Cc1ncsc1COc1cc2c(C(=O)NC3(CO)COC3)c(C)oc2cc1F [compound 362, 6-fluoro-N-(3-(hydroxymethyl)oxetan-3-yl)-2-methyl-5-((4-methylthiazol-5-yl)methoxy)benzofuran-3-carboxamide]",< 1 µM
10,"Cc1oc2cc(F)c(OCc3cccnc3O)cc2c1C(=O)NC1(CO)CCOCC1 [compound 363, 6-fluoro-N-(4-(hydroxymethyl)tetrahydro-2H-pyran-4-yl)-2-methyl-5-((2-oxo-1,2-dihydropyridin-3-yl)methoxy)benzofuran-3-carboxamide]",< 1 µM
11,"COc1ncccc1COc1cc2c(C(=O)NC3(CO)CCOCC3)c(C)oc2cc1F [compound 364, 6-fluoro-N-(4-(hydroxymethyl)tetrahydro-2H-pyran-4-yl)-5-((2-methoxypyridin-3-yl)methoxy)-2-methylbenzofuran-3-carboxamide]",< 1 µM
12,"Cc1ncsc1COc1cc(F)c2oc(C)c(C(=O)NC3(CO)COC3)c2c1 [compound 367, 7-fluoro-N-(3-(hydroxymethyl)oxetan-3-yl)-2-methyl-5-((4-methylthiazol-5-yl)methoxy)benzofuran-3-carboxamide]",< 1 µM
13,"Cc1ncc(COc2ccc3oc(C)c(C(=O)NCC4(C#N)CC4)c3c2)s1 [compound 370, N-((1-cyanocyclopropyl)methyl)-2-methyl-5-((2-methylthiazol-5-yl)methoxy)benzofuran-3-carboxamide]",< 1 µM
14,"Cc1ncsc1COc1ccc2oc(C)c(C(=O)NCC3(C#N)CC3)c2c1 [compound 371, N-((1-cyanocyclopropyl)methyl)-2-methyl-5-((4-methylthiazol-5-yl)methoxy)benzofuran-3-carboxamide]",< 1 µM
15,"Cc1oc2ccc(OCc3cccnc3C(F)(F)F)cc2c1C(=O)N[C@@H]1C(=O)NC[C@H]1O [compound 390, N-((3S,4R)-4-hydroxy-2-oxopyrrolidin-3-yl)-2-methyl-5-((2-(trifluoromethyl)pyridin-3-yl)methoxy)benzofuran-3-carboxamide]",< 1 µM
16,"Cc1ncc(COc2ccc3oc(C)c(C(=O)NCC4(F)CCOCC4)c3c2)s1 [compound 393, N-((4-fluorotetrahydro-2H-pyran-4-yl)methyl)-2-methyl-5-((2-methylthiazol-5-yl)methoxy)benzofuran-3-carboxamide]",< 1 µM
17,"Cc1ncsc1COc1ccc2oc(C)c(C(=O)NCC3(F)CCOCC3)c2c1 [compound 394, N-((4-fluorotetrahydro-2H-pyran-4-yl)methyl)-2-methyl-5-((4-methylthiazol-5-yl)methoxy)benzofuran-3-carboxamide]",< 1 µM
18,"Cc1ncc(COc2ccc3oc(C)c(C(=O)NC4(COC(F)F)CC4)c3c2)s1 [compound 399, N-(1-((difluoromethoxy)methyl)cyclopropyl)-2-methyl-5-((2-methylthiazol-5-yl)methoxy)benzofuran-3-carboxamide]",< 1 µM

# Continued, values first:
row,IC50,Structure (SMILES)
1,< 1 µM,"Cc1nc(C)c(COc2ccc3oc(C)c(C(=O)NC4(CO)CCOCC4)c3c2)s1 [compound 345, 5-((2,4-dimethylthiazol-5-yl)methoxy)-N-(4-(hydroxymethyl)tetrahydro-2H-pyran-4-yl)-2-methylbenzofuran-3-carboxamide]"
2,< 1 µM,"Cc1ncc(COc2ccc3oc(C)c(C(=O)NCC4(F)CC4)c3c2)s1 [compound 372, N-((1-fluorocyclopropyl)methyl)-2-methyl-5-((2-methylthiazol-5-yl)methoxy)benzofuran-3-carboxamide]"
3,< 1 µM,"Cc1ncsc1COc1ccc2oc(C)c(C(=O)NCC3(F)CC3)c2c1 [compound 373, N-((1-fluorocyclopropyl)methyl)-2-methyl-5-((4-methylthiazol-5-yl)methoxy)benzofuran-3-carboxamide]"
4,< 1 µM,"Cc1ncsc1COc1ccc2oc(C)c(C(=O)NCc3cc[nH]n3)c2c1 [compound 374, N-((1H-pyrazol-3-yl)methyl)-2-methyl-5-((4-methylthiazol-5-yl)methoxy)benzofuran-3-carboxamide]"
5,< 1 µM,"Cc1ncc(COc2ccc3oc(C)c(C(=O)N[C@H](C(N)=O)[C@@H](C)O)c3c2)o1 [compound 375, N-((2S,3R)-1-amino-3-hydroxy-1-oxobutan-2-yl)-2-methyl-5-((2-methyloxazol-5-yl)methoxy)benzofuran-3-carboxamide]"
6,< 1 µM,"Cc1ncccc1COc1ccc2oc(C)c(C(=O)N[C@H](C(N)=O)[C@@H](C)O)c2c1 [compound 376, N-((2S,3R)-1-amino-3-hydroxy-1-oxobutan-2-yl)-2-methyl-5-((2-methylpyridin-3-yl)methoxy)benzofuran-3-carboxamide]"
7,< 1 µM,"Cc1ncc(COc2ccc3oc(C)c(C(=O)N[C@H](C(N)=O)[C@@H](C)O)c3c2)s1 [compound 377, N-((2S,3R)-1-amino-3-hydroxy-1-oxobutan-2-yl)-2-methyl-5-((2-methylthiazol-5-yl)methoxy)benzofuran-3-carboxamide]"
8,< 1 µM,"Cc1ncsc1COc1ccc2oc(C)c(C(=O)N[C@H](C(N)=O)[C@@H](C)O)c2c1 [compound 378, N-((2S,3R)-1-amino-3-hydroxy-1-oxobutan-2-yl)-2-methyl-5-((4-methylthiazol-5-yl)methoxy)benzofuran-3-carboxamide]"
9,< 1 µM,"Cc1ccc(COc2ccc3oc(C)c(C(=O)N[C@H](C(N)=O)[C@@H](C)O)c3c2)cn1 [compound 380, N-((2S,3R)-1-amino-3-hydroxy-1-oxobutan-2-yl)-2-methyl-5-((6-methylpyridin-3-yl)methoxy)benzofuran-3-carboxamide]"
10,< 1 µM,"Cc1nc(C)c(COc2ccc3oc(C)c(C(=O)N[C@H](C(N)=O)[C@@H](C)O)c3c2)s1 [compound 382, N-((2S,3R)-1-amino-3-hydroxy-1-oxobutan-2-yl)-5-((2,4-dimethylthiazol-5-yl)methoxy)-2-methylbenzofuran-3-carboxamide]"
11,< 1 µM,"Cc1oc2ccc(OCc3c(F)cnn3C)cc2c1C(=O)N[C@H](C(N)=O)[C@@H](C)O [compound 383, N-((2S,3R)-1-amino-3-hydroxy-1-oxobutan-2-yl)-5-((4-fluoro-1-methyl-1H-pyrazol-5-yl)methoxy)-2-methylbenzofuran-3-carboxamide]"
12,< 1 µM,"Cc1ncc(COc2ccc3oc(C)c(C(=O)NCC4(F)COC4)c3c2)s1 [compound 384, N-((3-fluorooxetan-3-yl)methyl)-2-methyl-5-((2-methylthiazol-5-yl)methoxy)benzofuran-3-carboxamide]"
13,< 1 µM,"Cc1ncsc1COc1ccc2oc(C)c(C(=O)NCC3(F)COC3)c2c1 [compound 385, N-((3-fluorooxetan-3-yl)methyl)-2-methyl-5-((4-methylthiazol-5-yl)methoxy)benzofuran-3-carboxamide]"
14,< 1 µM,"Cc1ncc(COc2ccc3oc(C)c(C(=O)N[C@@H]4C(=O)NC[C@H]4O)c3c2)s1 [compound 391, N-((3S,4R)-4-hydroxy-2-oxopyrrolidin-3-yl)-2-methyl-5-((2-methylthiazol-5-yl)methoxy)benzofuran-3-carboxamide]"
15,< 1 µM,"Cc1ncsc1COc1ccc2oc(C)c(C(=O)N[C@@H]3C(=O)NC[C@H]3O)c2c1 [compound 392, N-((3S,4R)-4-hydroxy-2-oxopyrrolidin-3-yl)-2-methyl-5-((4-methylthiazol-5-yl)methoxy)benzofuran-3-carboxamide]"
16,< 1 µM,"Cc1ncsc1COc1ccc2oc(C)c(C(=O)NC(C)(C)C(=O)NCCO)c2c1 [compound 398, N-(1-((2-hydroxyethyl)amino)-2-methyl-1-oxopropan-2-yl)-2-methyl-5-((4-methylthiazol-5-yl)methoxy)benzofuran-3-carboxamide]"
